We go through three molecules from article PMC6403271, “Characterization, mechanism of action and optimization of activity of a novel peptide-peptoid hybrid against bacterial pathogens involved in canine skin infections” (Scientific Reports, 2019).

Values after ≈ are worked out from the molar mass of the structure shown. Read-outs that look alike come from different tables or passages of the source. Marks after values point to notes of the source that are not given here. Square brackets hold non-standard residues; d marks the D form. Peptide text beside a SMILES is read from it. N(1-naphthylmethyl)Gly = O=C(O)CNCc1cccc2ccccc12; 2Nal = N[C@@H](Cc1ccc2ccccc2c1)C(=O)O; d1Nal = N[C@H](Cc1cccc2ccccc12)C(=O)O; N(4-MeBn)Gly = Cc1ccc(CNCC(=O)O)cc1; dNle = CCCC[C@@H](N)C(=O)O; Nle = CCCC[C@H](N)C(=O)O; NBuGly = CCCCNCC(=O)O

In assay [1] the test system is E. coli, 30235. The format is cell-based, Escherichia coli. As to conditions: 30235, 18 h. From the text:
(§1) For antibacterial spectrum the following strains were used: Corynebacterium auriscanis, 31551, (54 C6, dog, ear, 2013); Enterococcus faecalis, 27404, (17 C7, dog, wound, 2011); Enterococcus faecium, 30951, (24 C1, dog, ear, 2013); Streptococcus canis, 26740-1, (14 H1, dog, ear, 2010); Staphylococcus aureus, 27266, (16 G9, dog, skin, 2010); Staphylococcus aureus, 27266, (16 G9, dog, skin, 2010); Staphylococcus pseudintermedius 22963, (3 B9, dog, 2007). Acinetobacter baumannii, 27065, (16 D1, dog, wound, 2010); E. coli, 30235, 23 A6, dog, wound, 2012; Klebsiella pneumoniae, 26233, (11 H5, dog, wound, 2010); Pasteurella canis, 31096, (24 C8, dog, skin, 2013); Proteus mirabilis, 25178, (9 A4, dog, ear, 2009); Pseudomonas aeruginosa 26314, 12 C5, dog, urine, 2010). MIC determination was performed by broth microdilution according to the Clinical and Laboratory Standard Institute (CLSI, […]-A3, 2008)[62]. In brief, each bacterial strain was diluted to concentration of 5 × 10^5 CFU/mL in Mueller Hinton broth II (MHB II) media (Oxoid) and added to a two-fold serial dilution of peptides and peptide-peptoid hybrids concentrations ranging from 1 to 64 μg/ml in 96-well plates (Nunc Internationals, Rochester, NY). The MICs were determined as a lowest concentration showing no visible growth after incubation for 18 hours at 37 °C. Experiments were performed in triplicates on two different days.

The subject of assay [2] is S. aureus strains. The format is cell-based, Staphylococcus aureus. As to conditions: 18 h.
Description: as §1, with “2010). […] 25054, (8 G6, dog, wound, 2009); 27266, (16 G9, dog, skin, 2010 also used in exp above); 28264,(20 B1, dog, wound, 2011); 30935, (24 B9, dog, joint, 2013); 36968, (61 A9, dog, wound, 2016); 37595,(65 D2, dog, joint, 2016); 37708-2, (66 C6, dog, skin, 2016); 38200, (68 E9, dog, skin, 2016); 38565-1, (70 A5, dog, skin, 2017); 38841, (70 G5, dog, urine, 2017).” for “2010).”

The subject of assay [3] is S. pseudintermedius strains. The format is cell-based, Staphylococcus pseudintermedius. To be noted: for MIC S. pseudintermedius strain 26071 / MIC S. pseudintermedius strain 26092-2 / MIC S. pseudintermedius strain 26959 / MIC S. pseudintermedius strain 27364 / MIC S. pseudintermedius strain 27382 / MIC S. pseudintermedius strain 31524 / MIC S. pseudintermedius strain 33228 / MIC S. pseudintermedius strain 35890 / MIC S. pseudintermedius strain 37526-1 / MIC S. pseudintermedius strain 37535-1 / MIC S. pseudintermedius strain 38637: 18 h. Here is the method: Activity of B1 was tested on 50P. aeruginosa isolates and 57S. pseudintermedius isolates (including 7 MRSP) that had been isolated in the diagnostic laboratory Sund Vet Diagnostik (University of Copenhagen) from various infections in dogs between 2009 and 2011. Representative MRSP (C22963), MSSA, and P. aeruginosa (26314) were used for testing the first set of B1 analogues.
For testing the selectivity of 23 and 26 against clinical isolates of S. pseudintermedius vs S. aureus the following strains were used.
MIC determination was performed by broth microdilution according to the Clinical and Laboratory Standard Institute (CLSI, M31-A3, 2008)[62]. In brief, each bacterial strain was diluted to concentration of 5 × 10^5 CFU/mL in Mueller Hinton broth II (MHB II) media (Oxoid) and added to a two-fold serial dilution of peptides and peptide-peptoid hybrids concentrations ranging from 1 to 64 µg/ml in 96-well plates (Nunc Internationals, Rochester, NY). The MICs were determined as a lowest concentration showing no visible growth after incubation for 18 hours at 37 °C. Experiments were performed in triplicates on two different days.

The test system of assay [4] is MRSP C22963. The format is cell-based, Staphylococcus pseudintermedius. Summed up: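 Broth microdilution per CLSI M31-A3 on canine clinical isolates plus reference MRSP C22963, MSSA and P. aeruginosa 26314; 5 × 10^5 CFU/mL in MHB II with two-fold dilutions from 1 to 64 µg/ml. MIC = lowest concentration without visible growth after 18 hours at 37 °C; triplicates on two days.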

As to `CCCC[C@H](NC(=O)[C@H](CCCCN)NC(=O)[C@H](CCCCN)NC(=O)[C@@H](N)CCCCN)C(=O)N[C@@H](Cc1ccc2ccccc2c1)C(=O)N[C@@H](Cc1ccccc1)C(=O)N[C@@H](Cc1ccc2ccccc2c1)C(N)=O` [Compound 23, Lys-Lys-Lys-Nle-(2-Nal)Ala-Phe-(2-Nal)Ala] (H-KKK[Nle][2Nal]F[2Nal]-NH2), the “MIC E. coli” value in assay [1] stood at 32 µg/mL (≈ 30.3 µM). Moreover, in assay [2], the “MIC S. aureus strain 25054” value came out at 64 µg/mL (≈ 60.6 µM), the “MIC S. aureus strain 27266” value lay within 32 to 64 µg/mL, the “MIC S. aureus strain 28264” value is recorded as 64 µg/mL (≈ 60.6 µM) and the “MIC S. aureus strain 30935” value was determined as 64 µg/mL (≈ 60.6 µM). Further, in assay [2], the “MIC S. aureus strain 36968” value is 64 µg/mL (≈ 60.6 µM), the “MIC S. aureus strain 37595” value is greater than 64 µg/mL, the “MIC S. aureus strain 37708-2” value is reported as 32 µg/mL (≈ 30.3 µM) and the “MIC S. aureus strain 38200” value was 64 µg/mL (≈ 60.6 µM). In addition, in assay [2], the “MIC S. aureus strain 38565-1” value stood at 64 µg/mL (≈ 60.6 µM) and the “MIC Staphylococcus aureus” value was found to be 32 µg/mL (≈ 30.3 µM). For the same molecule, in assay [3], the “MIC S. pseudintermedius strain 26071” value is 8 µg/mL (≈ 7.57 µM), the “MIC S. pseudintermedius strain 26092-2” value is 8 µg/mL (≈ 7.57 µM), the “MIC S. pseudintermedius strain 26959” value was found to be 4 µg/mL (≈ 3.79 µM) and the “MIC S. pseudintermedius strain 27364” value amounted to 2 µg/mL (≈ 1.89 µM). In assay [3], the “MIC S. pseudintermedius strain 27382” value was determined as 4 µg/mL (≈ 3.79 µM), the “MIC S. pseudintermedius strain 31524” value amounted to 8 µg/mL (≈ 7.57 µM), the “MIC S. pseudintermedius strain 33228” value was 2 µg/mL (≈ 1.89 µM) and the “MIC S. pseudintermedius strain 35890” value came to 2 µg/mL (≈ 1.89 µM). For the same molecule, in assay [3], the “MIC S. pseudintermedius strain 37526-1” value fell in the range of 1 to 2 µg/mL, the “MIC S. pseudintermedius strain 37535-1” value is 16 µg/mL (≈ 15.1 µM) and the “MIC S. pseudintermedius strain 38637” value is 16 µg/mL (≈ 15.1 µM). Also, in assay [4] (18 h), the “MIC Staphylococcus pseudintermedius” value is 4 µg/mL (≈ 3.79 µM) and the “Minimum Inhibitory Concentration MRSP C22963” value fell in the range of 2 to 4 µg/mL.
Consider `CCCC[C@@H](NC(=O)[C@H](CCCCN)NC(=O)[C@H](CCCCN)NC(=O)[C@@H](N)CCCCN)C(=O)N[C@H](Cc1cccc2ccccc12)C(=O)N[C@H](Cc1ccccc1)C(=O)N[C@H](Cc1cccc2ccccc12)C(N)=O` [Compound 26, Lys-Lys-Lys-nle-(1-Nal)ala-phe-(1-Nal)ala] (H-KKK[dNle][d1Nal][dF][d1Nal]-NH2; N-terminus assumed), for which the “MIC E. coli” value in assay [1] was 32 µg/mL (≈ 30.3 µM). In assay [2], the “MIC S. aureus strain 25054” value is listed as greater than 64 µg/mL, the “MIC S. aureus strain 27266” value is given as 64 µg/mL (≈ 60.6 µM), the “MIC S. aureus strain 28264” value is greater than 64 µg/mL and the “MIC S. aureus strain 30935” value is recorded as greater than 64 µg/mL. Moreover, in assay [2], the “MIC S. aureus strain 36968” value is given as greater than 64 µg/mL, the “MIC S. aureus strain 37595” value was greater than 64 µg/mL, the “MIC S. aureus strain 37708-2” value is recorded as greater than 64 µg/mL and the “MIC S. aureus strain 38200” value is given as greater than 64 µg/mL. For the same molecule, in assay [2], the “MIC S. aureus strain 38565-1” value is given as greater than 64 µg/mL and the “MIC Staphylococcus aureus” value is recorded as 64 µg/mL (≈ 60.6 µM). For the same molecule, in assay [3], the “MIC S. pseudintermedius strain 26071” value was found to be 4 µg/mL (≈ 3.79 µM), the “MIC S. pseudintermedius strain 26092-2” value is given as 4 µg/mL (≈ 3.79 µM), the “MIC S. pseudintermedius strain 26959” value is 4 µg/mL (≈ 3.79 µM) and the “MIC S. pseudintermedius strain 27364” value amounted to 2 µg/mL (≈ 1.89 µM). For the same molecule, in assay [3], the “MIC S. pseudintermedius strain 27382” value was 2 µg/mL (≈ 1.89 µM), the “MIC S. pseudintermedius strain 31524” value was 32 µg/mL (≈ 30.3 µM), the “MIC S. pseudintermedius strain 33228” value was 2 µg/mL (≈ 1.89 µM) and the “MIC S. pseudintermedius strain 35890” value turned out to be 4 µg/mL (≈ 3.79 µM). For the same molecule, in assay [3], the “MIC S. pseudintermedius strain 37526-1” value was found to be 4 µg/mL (≈ 3.79 µM), the “MIC S. pseudintermedius strain 37535-1” value was determined as 16 µg/mL (≈ 15.1 µM) and the “MIC S. pseudintermedius strain 38637” value is given as 8 µg/mL (≈ 7.57 µM). The “MIC Staphylococcus pseudintermedius” value in assay [4] (18 h) came to 4 µg/mL (≈ 3.79 µM). Besides, the “Minimum Inhibitory Concentration MRSP C22963” value in assay [4] (Table 1) is 4 to 8 µg/mL.
With `CCCCN(CC(=O)N[C@@H](CCCCN)C(=O)N(CC(=O)N(CC(=O)N(CC(N)=O)Cc1cccc2ccccc12)Cc1ccc(C)cc1)Cc1cccc2ccccc12)C(=O)[C@H](CCCCN)NC(=O)[C@@H](N)CCCCN` [B1, Lys-Lys-(NBu)Gly-Lys-(N1-Nal)Gly-(N4-MeBn)Gly-(N1-Nal)Gly] (H-KK[NBuGly]K[N(1-naphthylmethyl)Gly][N(4-MeBn)Gly][N(1-naphthylmethyl)Gly]-NH2), the “MIC E. coli” value in assay [1] was found to be 64 µg/mL (≈ 59.8 µM). Also, in assay [2], the “MIC Staphylococcus aureus” value was found to be 8 µg/mL (≈ 7.47 µM) and the “MICs for the three S. aureus isolates tested” value was in the range of 4 to 8 µg/mL. Further, in assay [3] (irrespective of methicillin resistance (7 MRSP, 50 MSSP)), the “MICs against a panel of 57 S. pseudintermedius isolates from canine infections” value lay within 2 to 4 µg/mL. Also, the “MIC Staphylococcus pseudintermedius” value in assay [4] (18 h) was 2 µg/mL (≈ 1.87 µM). Also, the “Minimum Inhibitory Concentration MRSP C22963” value in assay [4] (Table 1) is reported as 2–4^b µg/ml.
